From US20110002843A1, “METHOD OF DETECTING MYOCARDIAL DYSFUNCTION IN PATIENTS HAVING A HISTORY OF ASTHMA OR BRONCHOSPASM” (priority 2005, published 2011)
“Also recorded” adds a separate entry of the source.

Experiment: Pulmonary responses and safety in human subjects with mild, intermittent asthma (single-blind and double-blind parts)
Format: in vivo
Procedure: Methodology: The study consisted of 2 parts, a Single-Blind Part and a Double-Blind Part. The dose escalating, Single-Blind Part enrolled subjects with mild, intermittent asthma and consisted of 3 sequentially enrolled dosing cohorts with 8 subjects per cohort, such that Dosing Cohorts 1, 2 and 3 received binodenoson target doses of 0.5 μg/kg, 1.0 μg/kg and 1.5 μg/kg, respectively. All 8 subjects in a dosing cohort must have completed dosing at the assigned dose and a medical review of each cohort must have been acceptable before enrollment in the next cohort began. The Double-Blind Part was initiated only if the medical review of all safety data from the Single-Blind Part was acceptable. In the Double Blind Part, subjects with mild, intermittent asthma were randomly assigned in a 2:1 ratio to receive either binodenoson 1.5 μg/kg (n=40 planned) or placebo control (n=20 planned).
Both study parts were comprised of Screening, Treatment and Follow-Up Visits. The Screening Visit occurred 7 to 14 days before the Treatment Visit and consisted of a physical examination, medical history and application of inclusion and exclusion criteria. Subjects were instructed to measure peak expiratory flow (PEF) and asthma symptoms during a period of at least 7 days prior to the Treatment Visit. Subjects were to continue to meet all Screening eligibility criteria at the Treatment Visit and forced expiratory volume in 1 second (FEV1) was to remain within 80% of predicted for subjects to be eligible for dosing. All subjects enrolled in the Single-Blind Part and subjects randomized to receive binodenoson in the Double-Blind Part received 3 intravenous (IV) injections during the Treatment Visit: (1) placebo; (2) a low, challenge binodenoson dose to detect potential hypersensitivity reactions; and (3) an assigned binodenoson test dose. Subjects randomized to receive placebo in the Double Blind Part received 3 placebo injections. The Follow-Up Visit occurred 2 to 4 days following the Treatment Visit.
Eligible subjects were males or non-pregnant, nonlactating females ≧18 years of age weighing <350 pounds with a medical history of mild, intermittent asthma (as defined in the “Guidelines for the Diagnosis and Management of Asthma” prepared by the National Institutes of Health [NIH]) within 6 months of Screening.
Subjects were not eligible for the study if they had resting sitting systolic blood pressure (SBP)<100 or >140 mmHg, diastolic blood pressure (DBP)<60 or >90 mmHg, pulse rate >95 beats per minute (bpm), or a lower limit FEV1 at rest of <80% of the predicted value at Screening.
Dose and Mode of Administration: A stock solution of binodenoson (25 μg/mL) was administered as a bolus injection over 30 seconds (0.1 μg/kg=0.004 mL/kg of stock solution, 0.5 μg/kg=0.02 mL/kg of stock solution, 1.0 μg/kg=0.04 mL/kg of stock solution and 1.5 μg/kg=0.06 mL/kg of stock solution).
Duration of Treatment: Each subject received three 30-second bolus IV injections separated by ≧90 minutes in both the Single Blind and Double-Blind Parts of the study.
Criteria for Evaluation: The primary safety endpoint was clinically significant bronchoconstriction, defined as a ≧20% decrease in FEV1 from the predrug baseline following binodenoson administration. Other safety assessments included need for rescue medication, regular measurements of pulmonary function (FEV1 [% predicted], forced vital capacity [FVC] and forced expiratory flow during the middle half of the FVC [FEF25%-75%]), vital signs, pulse oximetry, physical examination findings, electrocardiogram (ECG) results, clinical laboratory results and adverse events.
Statistical Methods: All data collected in the study were summarized by treatment (placebo; 0.1 μg/kg binodenoson challenge; or 0.5, 1.0, or 1.5 μg/kg binodenoson) and study Part (Single-Blind or Double-Blind with univariate summaries). Continuous variables were summarized with descriptive statistics (n, mean, median, standard deviation [SD] and minimum and maximum). […]

[1] = double-blind, third injection 1.5 μg/kg iv bolus, 90 min
[2] = single-blind, Cohort 1, second injection 0.1 μg/kg iv bolus, 15 minutes
[3] = single-blind, Cohort 1, second injection 0.1 μg/kg iv bolus, 90 minutes
[4] = single-blind, Cohort 2, second injection 0.1 μg/kg iv bolus, 15 minutes
[5] = single-blind, Cohort 2, second injection 0.1 μg/kg iv bolus, 90 minutes
[6] = single-blind, Cohort 3, second injection 0.1 μg/kg iv bolus, 15 minutes
[7] = single-blind, Cohort 3, second injection 0.1 μg/kg iv bolus, 90 minutes

Question: What does the source list for Nc1nc(N/N=C/C2CCCCC2)nc2c1ncn2[C@@H]1O[C@H](CO)[C@@H](O)[C@H]1O (stereo in doubt) [Binodenoson, 2-{2-[(Cyclohexyl)methylene]hydrazino}adenosine]?
Answer: FEF25%-75% Mean (SD) [1]: 2.923 (0.963); FEV1 (% predicted) Mean % Change from Baseline (SD) [1]: 1.1 (3.2) %; FEV1 (% predicted) Mean (SD) [1]: 89.0 (7.7) % predicted; FEV1 Mean % Change from Baseline (SD) [1]: 1.228 (3.835) %; FEV1 Mean (SD) [1]: 3.191 (0.588); FVC Mean % Change from Baseline (SD) [1]: 1.755 (3.720) %; FVC Mean (SD) [1]: 4.093 (0.800); changes in SBP, pulse rate and DBP (double-blind, magnitude greater in binodenoson than placebo group): Transient increases in SBP and pulse rate and decreases in DBP; need for rescue medication (single- and double-blind parts): No subject required rescue medication; clinically significant bronchoconstriction (≧20% decrease in FEV1 from predrug baseline) (single- and double-blind parts, doses up to 1.5 μg/kg): No bronchoconstriction events; also recorded: did not induce bronchoconstriction; FEF25%-75% Mean % Change from Baseline (SD) [2]: 0.526 (7.433) %; FEF25%-75% Mean (SD) [2]: 2.994 (0.911); FEV1 (% predicted) Mean % Change from Baseline (SD) [2]: 0.1 (3.6) %; FEV1 (% predicted) Mean (SD) [2]: 90.5 (12.1) % predicted; FEV1 (L) Mean % Change from Baseline (SD) [2]: 0.136 (3.922) %; FEV1 (L) Mean (SD) [2]: 3.908 (0.824) L; FVC Mean % Change from Baseline (SD) [2]: −0.003 (2.480) %; FVC Mean (SD) [2]: 5.516 (1.130); FEF25%-75% Mean % Change from Baseline (SD) [3]: 9.136 (9.019) %; FEF25%-75% Mean (SD) [3]: 3.241 (0.946); FEV1 (% predicted) Mean % Change from Baseline (SD) [3]: 4.5 (3.5) %; FEV1 (% predicted) Mean (SD) [3]: 94.9 (12.3) % predicted; FEV1 (L) Mean % Change from Baseline (SD) [3]: 5.043 (4.097) %; FEV1 (L) Mean (SD) [3]: 4.101 (0.867) L; FVC Mean % Change from Baseline (SD) [3]: 2.379 (3.221) %; FVC Mean (SD) [3]: 5.654 (1.188); FEF25%-75% Mean % Change from Baseline (SD) [4]: 0.724 (4.318) %; FEF25%-75% Mean (SD) [4]: 3.665 (1.555); FEV1 (% predicted) Mean % Change from Baseline (SD) [4]: 1.4 (2.5) %; FEV1 (% predicted) Mean (SD) [4]: 94.8 (13.2) % predicted; FEV1 (L) Mean % Change from Baseline (SD) [4]: 1.292 (2.662) %; FEV1 (L) Mean (SD) [4]: 3.944 (0.895) L; FVC Mean % Change from Baseline (SD) [4]: 2.129 (3.295) %; FVC Mean (SD) [4]: 5.120 (1.195); FEF25%-75% Mean % Change from Baseline (SD) [5]: −2.574 (12.173) %; FEF25%-75% Mean (SD) [5]: 3.471 (1.285); FEV1 (% predicted) Mean % Change from Baseline (SD) [5]: 0.3 (4.2) %; FEV1 (% predicted) Mean (SD) [5]: 93.6 (13.0) % predicted; FEV1 (L) Mean % Change from Baseline (SD) [5]: 0.165 (4.367) %; FEV1 (L) Mean (SD) [5]: 3.895 (0.854) L; FVC Mean % Change from Baseline (SD) [5]: 1.624 (3.599) %; FVC Mean (SD) [5]: 5.100 (1.219); FEF25%-75% Mean % Change from Baseline (SD) [6]: 0.635 (6.670) %; FEF25%-75% Mean (SD) [6]: 2.758 (0.695); FEV1 (% predicted) Mean % Change from Baseline (SD) [6]: 0.1 (2.7) %; FEV1 (% predicted) Mean (SD) [6]: 90.5 (8.5) % predicted; FEV1 (L) Mean % Change from Baseline (SD) [6]: 0.145 (2.786) %; FEV1 (L) Mean (SD) [6]: 3.325 (0.690) L; FVC Mean % Change from Baseline (SD) [6]: 0.480 (2.084) %; FVC Mean (SD) [6]: 4.364 (0.876); FEF25%-75% Mean % Change from Baseline (SD) [7]: 4.324 (8.478) %; FEF25%-75% Mean (SD) [7]: 2.836 (0.636); FEV1 (% predicted) Mean % Change from Baseline (SD) [7]: 0.9 (2.0) %; FEV1 (% predicted) Mean (SD) [7]: 91.3 (7.3) % predicted
